According to US5652238A, “Esters of substituted-hydroxyacetyl piperazine phenyl oxazolidinones” (Pharmacia & Upjohn Company, priority 1996, dated 1997):
≈ marks a conversion by molar mass, not a printed value.

What was measured:
[1] = Aqueous solubility (pH 7, phosphate buffer); format: physicochemical
[2] = system: Staphylococcus aureus UC9213 or Streptococcus species; experiment: Antimicrobial activity in vivo, Murine Assay (mice infected intraperitoneally with bacteria; ED50 from survival over six days); settings: 144 h, female mice, treatment one hour and five hours after infection
Method: Antimicrobial activity was tested in vivo using the Murine Assay procedure. Groups of female mice (six mice of 18-20 grams each) were injected intraperitoneally with bacteria which were thawed just prior to use and suspended in brain heart infusion with 4% brewers yeast UC9213 (Staphylococcus aureus) or brain heart infusion (Streptococcus species). Antibiotic treatment at six dose levels per drug was administered one hour and five hours after infection by either oral intubation or subcutaneous ("subcut.") routes. Survival was observed daily for six days. ED50 values based on mortality ratios were calculated using probit analysis. The subject compounds were compared against a well-known antimicobial (Vancomycin) as a control.

Row | SMILES | solubility [1] [µg/mL] | ED50 ([2]; oral) [mg/kg] | ED50 ([2]; sc, subcut.) [mg/kg]
1 | COCC(=O)OCC(=O)N1CCN(c2ccc(N3C[C@H](CNC(C)=O)OC3=O)cc2F)CC1 [Example 25, Methoxyacetic acid, 2-(4-(4-(5-((acetylamino)methyl)-2-oxo3-oxazolidinyl)-2-fluorophenyl)-1-piperazinyl)-2-oxoethyl ester, (S)] | 6400 (≈ 13.7 mM) | 8 | 15
2 | CC(=O)NC[C@H]1CN(c2cc(F)c(N3CCN(C(=O)COC(=O)CCN4CCOCC4)CC3)c(F)c2)C(=O)O1 [Example 26, 3-(N-morpholinyl)propionic acid, 2-(4-(4-(5-((acetylamino)methyl)-2-oxo-3-oxaxzolidinyl)-2,6-difluorophenyl)-1-piperazinyl)-2-oxoethyl ester, (S)] | 8200 (≈ 14.8 mM) | 6 | 3
3 | CC(=O)NC[C@H]1CN(c2ccc(N3CCN(C(=O)COC(=O)CN4CCOCC4)CC3)c(F)c2)C(=O)O1 [Example 27, (4-morpholinyl)acetic acid, 2-(4-(4-(5-((acetylamino)methyl)-2-oxo-3-oxazolidinyl)-2-fluorophenyl)-1-piperazinyl)-2-oxoethyl ester, (S)] | 55300 (≈ 106 mM) | 6 | 
4 | CC(=O)NC[C@H]1CN(c2ccc(N3CCN(C(=O)COC(=O)c4ccc(NC(=O)CN)cc4)CC3)c(F)c2)C(=O)O1 [Example 29, 4-N-(glycinyl)aminobenzoic acid, 2-[4-[4-[5-[(acetylamino)methyl]-2-oxo-3-oxazolidinyl]-2-fluorophenyl]-1-piperazinyl]-2-oxoethyl ester, (S)-] | 9800 (≈ 17.2 mM) | 9 | 
